Measurements reported in the NIST ThermoML archive (doi:10.1016/j.fluid.2013.02.008).
Numbers after ± are expanded uncertainties. One block for each compound: values may come before it.

Test: activity coefficient (dimensionless); of the first substance listed, at infinite dilution; xn = mol fraction of the nth substance listed
Conditions: Liquid, Chromatography, x1 = 0

Structure (SMILES): CCCCCCCCCC [decane] + CCCCCCCCCCCCCCO
- activity coefficient (353 K, 101 kPa): 2.1 ± 0.14
- activity coefficient (372.4 K, 101 kPa): 1.9 ± 0.13
- activity coefficient (392 K, 101 kPa): 1.79 ± 0.12
- activity coefficient (430.3 K, 101 kPa): 1.68 ± 0.11

Structure (SMILES): CCCCCCCCCC [decane] + CCCCCCCCCCCCO
- activity coefficient (352.7 K, 101 kPa): 3.46 ± 0.24
- activity coefficient (362.5 K, 101 kPa): 2.93 ± 0.2
- activity coefficient (372.8 K, 101 kPa): 2.67 ± 0.18
- activity coefficient (382.9 K, 101 kPa): 2.42 ± 0.16
- activity coefficient (392 K, 101 kPa): 2.31 ± 0.16
- activity coefficient (410.9 K, 101 kPa): 2.31 ± 0.16
- activity coefficient (430.6 K, 101 kPa): 2.18 ± 0.15

Structure (SMILES): CCCCCCCCCC [decane] + CCCCCCCCCCO
- activity coefficient (352.8 K, 101 kPa): 2.98 ± 0.2
- activity coefficient (372.2 K, 101 kPa): 2.73 ± 0.19
- activity coefficient (391.6 K, 101 kPa): 2.6 ± 0.18

Structure (SMILES): CCCCCCCCCC [decane] + OCCCO
- activity coefficient (312.1 K, 101 kPa): 793 ± 55
- activity coefficient (333.1 K, 101 kPa): 589 ± 41
- activity coefficient (352.1 K, 101 kPa): 501 ± 34
- activity coefficient (372.1 K, 101 kPa): 464 ± 32
- activity coefficient (391.1 K, 101 kPa): 338 ± 23
- activity coefficient (411.1 K, 101 kPa): 256 ± 18

Structure (SMILES): CCCCCCCCCC [decane] + OCCO
- activity coefficient (359.5 K, 101 kPa): 1680 ± 120
- activity coefficient (373.1 K, 101 kPa): 1210 ± 84
- activity coefficient (392.4 K, 101 kPa): 804 ± 55
- activity coefficient (411.5 K, 101 kPa): 557 ± 38
- activity coefficient (431 K, 101 kPa): 454 ± 31

Structure (SMILES): CCCCCCCC [octane] + CCCCCCCCCCCCCCO
- activity coefficient (353 K, 101 kPa): 1.87 ± 0.08
- activity coefficient (372.4 K, 101 kPa): 1.76 ± 0.07
- activity coefficient (391.9 K, 101 kPa): 1.69 ± 0.07
- activity coefficient (410.6 K, 101 kPa): 1.63 ± 0.07
- activity coefficient (430.6 K, 101 kPa): 1.61 ± 0.06

Structure (SMILES): CCCCCCCC [octane] + CCCCCCCCCCCCO
- activity coefficient (353.3 K, 101 kPa): 2.29 ± 0.16
- activity coefficient (362.6 K, 101 kPa): 2.21 ± 0.15
- activity coefficient (372.4 K, 101 kPa): 2.16 ± 0.15
- activity coefficient (383 K, 101 kPa): 2.08 ± 0.14
- activity coefficient (411.1 K, 101 kPa): 1.9 ± 0.13
- activity coefficient (430.6 K, 101 kPa): 1.76 ± 0.12

Further lines, results first:

- activity coefficient (331.8 K, 101 kPa): 1.69 ± 0.11
- activity coefficient (353 K, 101 kPa): 1.6 ± 0.11
Structure (SMILES): CCCCCC [hexane] + CCCCCCCCCCCCCCO

- activity coefficient (312.7 K, 101 kPa): 2.03 ± 0.14
- activity coefficient (332.1 K, 101 kPa): 1.98 ± 0.13
- activity coefficient (353.2 K, 101 kPa): 1.86 ± 0.13
Structure (SMILES): CCCCCC [hexane] + CCCCCCCCCCCCO

- activity coefficient (312.6 K, 101 kPa): 2.21 ± 0.15
- activity coefficient (331.7 K, 101 kPa): 2.14 ± 0.15
- activity coefficient (352.9 K, 101 kPa): 2.02 ± 0.14
Structure (SMILES): CCCCCC [hexane] + CCCCCCCCCCO

- activity coefficient (312.1 K, 101 kPa): 77.2 ± 5.3
- activity coefficient (333.1 K, 101 kPa): 72.9 ± 5
- activity coefficient (352.1 K, 101 kPa): 52.4 ± 3.6
Structure (SMILES): CCCCCC [hexane] + OCCCO

- activity coefficient (313.2 K, 101 kPa): 97.8 ± 6.7
- activity coefficient (332.1 K, 101 kPa): 88.1 ± 6
- activity coefficient (353.5 K, 101 kPa): 80.6 ± 5.5
Structure (SMILES): CCCCCC [hexane] + OCCO

- activity coefficient (352.7 K, 101 kPa): 2.44 ± 0.17
- activity coefficient (372.2 K, 101 kPa): 2.28 ± 0.16
- activity coefficient (391.8 K, 101 kPa): 2.15 ± 0.15
Structure (SMILES): CCCCCCCC [octane] + CCCCCCCCCCO

- activity coefficient (312.1 K, 101 kPa): 314 ± 22
- activity coefficient (333.1 K, 101 kPa): 283 ± 19
- activity coefficient (352.1 K, 101 kPa): 224 ± 15
- activity coefficient (372.1 K, 101 kPa): 187 ± 13
- activity coefficient (391.1 K, 101 kPa): 148 ± 10
Structure (SMILES): CCCCCCCC [octane] + OCCCO

- activity coefficient (332.1 K): 631 ± 43
- activity coefficient (353.6 K): 447 ± 31
- activity coefficient (372.7 K): 383 ± 26
- activity coefficient (392.4 K): 313 ± 22
Structure (SMILES): CCCCCCCC [octane] + OCCO
